Entries after “also recorded” stand apart in the source; their conditions may differ. Like-named read-outs stand apart in the source and are kept apart here.
Experiments:
[1] = tested on: human AVM-NKT cells (human CD56+ cells); assay: Humanized mice orally dosed with DSP (Example 8); type: in vivo, mouse; conditions: oral HED 18-45 mg/kg, 24-48 hours later
Description: BRGSF humanized mice on a Balb/c background from Genoway generated by transplanting human umbilical cord blood CD34+ stem cells into irradiated mice that lack mouse B and T lymphocytes and NK cells but have a functional mouse complement system are orally dosed with HED 18-45 mg/kg DSP.
NCG mice are humanized by adoptive transfer using human umbilical cord blood-derived CD34+ stem cells, following myeloablation treatment. NCG mice from 4 donors (n=2 per donor) are orally dosed with HED 18-45 mg/kg DSP.
huNOG EXL from Taconic have an average of 54% of CD45 cells positive for human CD45. Six huNOG EXL humanized immune system mice from 3 donors (n=2 per donor) are orally dosed with HED 18-45 mg/kg DSP.

[2] = tested on: AVM-NKT cells (CD3highCD49b+); type: in vivo, mouse; conditions: for induction of AVM-NKT cells by comparators: naïve mice, standard Cy/Flu chemotherapy or methylprednisone
Text: Mice were anesthetized with isoflurane gas.

[3] = tested on: mouse whole blood and splenocytes; assay: Ex vivo/in vitro dexamethasone concentration-response curve
CD56+γδTCR+iTCR+ cells = assay: AVM0703 R/R NHL clinical trial, whole blood flow cytometry; type: in vivo, human; conditions: listed as DP
Description: FIG. 15. 101-001 size (FSC) and complexity (SSC) scattergram of AVM_NKT cells. […] Blood was stained with panel antibodies based for 15 minutes in the dark at Room Temperature. RBC lysis was performed by addition of 1 mL of 1×BD FACS Lysing Solution (BD Bioscience), diluted with MilliQ water, for 10 minutes in the dark at Room Temperature. Samples were washed with 2 mL 1×DPBS CMF (Gibco) and resuspended in 300 μL of 1×DPBS CMF before 5 μL of 7AAD (Biolegend) was added to each sample for live/dead cell determination and incubated for 5 minutes in the dark at Room Temperature. 250 μL of sample were taken up for acquisition on Macsquant 16 Flow Cytometer (Miltenyi, Serial #40150). Live white blood cells were gated for CD56+ cells co-expressing gamma delta TCR and the invariant TCR and labelled red in the forward versus side scattergram. Red-labelled cells fall within the forward versus side scattergrams where large granular cells such as neutrophils and large granular lymphocytes are known to fall.
For characterisation of the induced/mobilized population of NKT-like cells (AVM-NKT) in humans, whole blood from human subjects was drawn in K2 EDTA Vacutainer tube (367862, BD Biosciences, NJ) and shipped to AVM Biotechnology at room temperature. 100 μl of whole blood was stained with the following antibodies: CD45 AF700 (2D1), CD16 APC (3G8), INKT PECy7 (6B11), CD8 PE (SK1), CD14 FITC (M5E2), CD56 BV650 (5.1H11), γδTCR BV510 (B1), CD19 BV421 (HIB19), NKp44 APC (P44-8) (all from Biolegend, San Diego, CA) and CD3 APCVio770 (BW264/56), (Miltenyi Biotec, San Jose, CA), 7-AAD, (Biolegend, San Diego CA) was included to distinguish the live and dead cells.

R/R NHL = assay: AVM0703 R/R NHL clinical trial, clinical and PET/CT response, survival; type: in vivo, human; conditions: patient 108-004, 12 mg/kg; listed as DP
A20 B cell lymphoma = conditions: 18 mg/kg HED
Description: FIG. 10B. […] Mice were inoculated with A20 lymphoma 2×10^6 cells in 100 μL of PBS mixed with 100 μL of chilled Matrigel into their flank. Three, 24 and 48 hours later mice were euthanized and tumors, blood, bone marrow and thymus were taken and made into single cell suspensions for flow cytometry detection of live A20 cells.

A20 cells = A20 cells treated with high dose dexamethasone in vitro; type: cell-based, mouse; conditions: 72 hours after high dose dexamethasone treatment in vitro
[4] = tested on: peripheral blood lymphocytes; assay: Lymphodepletion study in naïve mice (complete blood count, flow cytometry)
Description: For initial lymphodepletion studies, naïve C57Bl/6 mice were treated with 18 mg/kg HED DP by oral gavage. Male C57BL/6 mice were obtained from Taconic Bioscience (Germantown, NY) and acclimated to laboratory conditions for at least one week. […] Each dosed timepoint group was accompanied by a placebo group of the same age and condition according to Table 3. […] When mice reached study timepoint, they were euthanized as follows. Mice were anesthetized with isoflurane gas. Once anesthetized, blood was drawn via cardiac puncture and place immediately in heparin-lined microtubes. 10 mL of 5 U/mL of Heparin/PBS was used for infused by slow push for retrograde perfusion via the abdominal aorta to flush out all remaining blood from the vasculature. Subsequently, 250 μL of blood was transferred to a lavender-topped EDTA-lined microtube and transported to by Lynette Brown at Flow Contract Site Labs (Bothell, WA) for analysis by flow cytometry. The remaining blood was sent to Phoenix Labs (Mukilteo, WA) for Complete Blood Counts and Clinical Chemistries

[5] = in vivo; cited from earlier work

C[C@@H]1C[C@H]2[C@@H]3CCC4=CC(=O)C=C[C@]4(C)[C@@]3(F)[C@@H](O)C[C@]2(C)[C@@]1(O)C(=O)COP(=O)(O)O [DSP, Dexamethasone sodium phosphate]
cell population corresponding to AVM-NKT cells ([1]; BRGSF humanized mice): can be observed
cells corresponding to AVM-NKT cells, % of total splenocytes ([1]; HuCD34-NCG mice): 0.2-3%
cells corresponding to AVM-NKT cells, % of total splenocytes ([1]; huNOG EXL mice): 0.2-3%

C[C@@H]1C[C@H]2[C@@H]3CCC4=CC(=O)C=C[C@]4(C)[C@@]3(F)[C@@H](O)C[C@]2(C)[C@@]1(O)C(=O)CO [dexamethasone base]
induction of AVM-NKT cells, dose escalation ([2]; 15 mg/kg HED): particularly robust production
induction of AVM-NKT cells, dose escalation ([2]; 6+6 mg/kg HED: 6 mg/kg at time 0 and 6 mg/kg 24 hours later): particularly robust production
induction of AVM-NKT cells, dose escalation ([2]; single dose between 6-12 mg/kg HED): can induce AVM-NKT cells
human equivalent dose giving an in vivo peak blood concentration of 100 uM [3]: ~2.8 mg/kg
response of RBCs ([3]; ex vivo, any concentration (data not shown)): no response
concentration above which apoptosis decreases (biphasic curve) ([3]; isolated mouse splenocytes and whole blood, 6 hours incubation): above 100 uM

C[C@@H]1C[C@H]2[C@@H]3CCC4=CC(=O)C=C[C@]4(C)[C@@]3(F)[C@@H](O)C[C@]2(C)[C@@]1(O)C(=O)COP(=O)(O)O [dexamethasone phosphate, Dexamethasone phosphate, reference compound]
CD56+ γδTCR+ iTCR+ cells/uL (CD56+γδTCR+iTCR+ cells; patient 103-005, 9 mg/kg, 1 hour post-infusion): 22 cells/uL
CD56+γδTCR+invTCR+ cells in blood (CD56+γδTCR+iTCR+ cells; patient 108-004, 12 mg/kg, one hour, 3 days or 14 days after infusion (pre-infusion 0.09%, 4.6 cells/uL)): no evidence
objective beneficial response (PET/CT, clinical chemistries, CBCs or clinical symptoms) (R/R NHL): did not have a clinical response
time of maximal ablation of A20 lymphoma implanted in the flank (A20 B cell lymphoma): ≤ 3 h
time of maximal eradication of A20 metastasis to blood and thymus (A20 B cell lymphoma): 24 h
time of maximal eradication of A20 metastasis to bone marrow (A20 B cell lymphoma): 48 h

C[C@@H]1C[C@H]2[C@@H]3CCC4=CC(=O)C=C[C@]4(C)[C@@]3(F)[C@@H](O)C[C@]2(C)[C@@]1(O)C(=O)CO [dexamethasone]
apoptosis of A20 cells (A20 cells): about 30%
platelet numbers ([4]; 18 mg/kg HED DP, 18 mg/kg): spared; also recorded: does not affect
number of live hematopoietic stem cells ([4]; 18 mg/kg HED DP, 6 hours to 35 days, 18 mg/kg): spared or increased; also recorded: does not significantly alter
Basophils ([4]; high-dose dexamethasone): reduced only at the 6 hour time point
MSCs ([4]; high-dose dexamethasone): spared or increased
RBCs ([4]; high-dose dexamethasone): spared
eosinophils ([4]; high-dose dexamethasone): reduced only at the 24 and 48 hour time points
time to induction of AVM-NKT cells in the spleen ([2]; normal mice, after dexamethasone dosing): ≤ 48 h

C[C@]12C=CC(=O)C=C1CC[C@@H]1[C@@H]2C(=O)C[C@@]2(C)[C@H]1CC[C@]2(O)C(=O)CO [prednisone]
biologic half-life [5]: about 20 hours

cyclophosphamide/fludarabine [Cy/Flu]
Total NKT cell numbers ([4]; 13 mg/kg HED cyclophosphamide and 0.8 mg/kg HED fludarabine, 48 hours): no such increase
induction of AVM-NKT cells by comparators [2]: not induced
induction of AVM-NKT cells by comparators ([2]; listed as Cyclophosphamide/fludarabine): does not induce

methylprednisone
induction of AVM-NKT cells by comparators [2]: not induced

— US20240358829A1, “Lymphocyte Population and Methods for Producing Same” (AVM Biotechnology, LLC, priority 2021, published 2024)
